Data as given in ChEMBL document CHEMBL1126985, “Brush-border-enzyme-mediated intestine-specific drug delivery. Amino acid prodrugs of 5-aminosalicylic acid” (J Med Chem, 1993).

What was measured:
Rattus norvegicus [1] = organism: Rattus norvegicus; assay: Fecal recovery in colostomized rats at 2 hr intervals for 48 h; type: functional
Rattus norvegicus [2] = organism: Rattus norvegicus; assay: Fecal recovery in non-colostomized rats at 2 hr intervals for 48 h; type: functional
Rattus norvegicus [3] = organism: Rattus norvegicus; assay: Urinary recovery in colostomized rats at 2 hr intervals for 48 h; type: functional, Urine
Rattus norvegicus [4] = organism: Rattus norvegicus; assay: Urinary recovery in non-colostomized rats at 2 hr intervals for 48 h; type: functional, Urine
[5] = Half-life was determined by hydrolysis of compound in a solution of peptidases; type: ADME

With `N[C@@H](CC(=O)[O-])C(=O)Nc1ccc(O)c(C(=O)[O-])c1.[Na+].[Na+]` as the compound, how does the Fecal recovery (Rattus norvegicus [1]) read?
Its Fecal recovery is 35.73%.

And the Fecal recovery (Rattus norvegicus [2])?
Its Fecal recovery is 34.2%.

And the Urinary recovery (Rattus norvegicus [3])?
Its Urinary recovery is 32.66%.

What about the Urinary recovery (Rattus norvegicus [4]) of the same compound?
Its Urinary recovery is 30.09%.

For `N[C@@H](CCC(=O)[O-])C(=O)Nc1ccc(O)c(C(=O)[O-])c1.[Na+].[Na+]`, which half-life [5] is on record?
Its half-life is 1.35 h.

And the Fecal recovery (Rattus norvegicus [1])?
The Fecal recovery was 44.2%.

What about the Fecal recovery (Rattus norvegicus [2]) of the same compound?
Its Fecal recovery is 44.29%.

And the Urinary recovery (Rattus norvegicus [3])?
Its Urinary recovery is 31.83%.

What about the Urinary recovery (Rattus norvegicus [4]) of the same compound?
Its Urinary recovery is 32.42%.

What does the source list for `Nc1ccc(O)c(C(=O)O)c1` [MESALAMINE]?
Fecal recovery (Rattus norvegicus [1]): 5.08%; Fecal recovery (Rattus norvegicus [2]): 4.32%; Urinary recovery (Rattus norvegicus [3]): 69.61%; Urinary recovery (Rattus norvegicus [4]): 78.84%

Which results are given for `O=C(O)c1cc(/N=N/c2ccc(S(=O)(=O)Nc3ccccn3)cc2)ccc1O` [SULFASALAZINE]?
Fecal recovery (Rattus norvegicus [1]): 37.77%; Fecal recovery (Rattus norvegicus [2]): 38.9%; Urinary recovery (Rattus norvegicus [3]): 33.34%; Urinary recovery (Rattus norvegicus [4]): 32.21%
